Values quoted from earlier work, collected in patent US20230023032A1, “SUSTAINED RELEASE COMPOSITIONS COMPRISING LIOTHYRONINE” (Amneal Complex Products Research LLC, priority 2020, published 2023).

Conditions: administered in an immediate release form

## N[C@@H](Cc1cc(I)c(Oc2ccc(O)c(I)c2)c(I)c1)C(=O)O [liothyronine]
  half-life: about 10 hours
